In patent US12319677B2, “Process for the production of 5-(4-((2S,5S)-5-(4-chlorobenzyl)-2-methyl-morpholino)piperidin-1-yl)-1H-1,2,4-triazol-3-amine” (Molecure S.A., priority 2019, dated 2025):
“And” between values parts separate entries of the source, which are not always exact repeats. Equal entries are not always repeated.

Experiments:
Type in all cases: physicochemical
[1] = Particle size distribution (PSD), Malvern Mastersizer 2000 in Isopar G; conditions: three batches of the anhydrous form made by method D
Excerpt: The synthesis of the compound of formula 1 hydrated form I followed by the synthesis of the compound of the formula 1 anhydrous form has a significant advantage as compared to the synthesis of the compound of formula 1 described in WO 2017/037670. Under new conditions, the precipitation of the compound of the formula 1 hydrated form I unobviously allows to control the amount of residual hydrazine which is considered as a genotoxic impurity and must be controlled at ppm levels. The method outlined in the previous paragraph was used for the synthesis of three batches of the anhydrous form of the compound of formula 1. This material was carefully analyzed for purity, residual hydrazine level and particle size distribution.
PSD data were recoded with Malvern Mastersizer 2000 in Isopar G.

[2] = Solid-state stability of the hydrated forms upon drying; conditions: leads to amorphous form
Excerpt: Due to the fact that the compound of formula 6 is not stable in methanol, it is not possible to obtain the hydrated form II directly from the compound 6 as for hydrated form I of the compound of formula 1. Both hydrated forms I and II of the compound of formula 1 are unstable, leading to amorphous form upon drying. The XPRD data for the dried material and data calculated from X-ray structure differ. […] The amorphous form of the compound of formula 1 can be prepared in a more convenient way by melting the anhydrous form or hydrated form I or II of the compound of formula 1 followed by cooling off the material to ambient temperature. After grinding the glass-like solid, […] of the compound of formula 1 is an off-white solid.

[3] = Stability of process intermediates (in methanol / as free base)
Excerpt: Under conditions described in the patent application WO 2017/037670 (sodium triacetoxy-borohydride, acetic acid and 1,2-dichloroethane), the compound of formula 11 reacts with N-Boc-4-piperidinone leading to a by-product of formula 12 which is observed in crude compound of formula 3. The impurity of formula 12 can be removed by the careful purification on silica gel but such an approach is unacceptable on a kilo-scale. […] Since the compound of formula 11 can be easily removed by crystallization after removal of the tert-butoxycarbonyl protection group, the present invention relates to a method for the synthesis of the compound of formula 5 with no impurity of formula 13. Moreover, the conditions described in this application unobviously allow one to use hydrochloride salt of the compound of formula 2 as the starting material which can facilitate the process. […]
Due to the fact that the compound of formula 6 is not stable in methanol, it is not possible to obtain the hydrated form II directly from the compound 6 as for hydrated form I of the compound of formula 1. […] The XPRD data for the dried material and data calculated from X-ray structure differ. […]

C[C@H]1CN(C2CCN(c3nc(N)n[nH]3)CC2)[C@@H](Cc2ccc(Cl)cc2)CO1 [1, anhydrous form, 5-(4-((2S,5S)-5-(4-chlorobenzyl)-2-methylmorpholino)piperidin-1-yl)-1H-1,2,4-triazol-3-amine]
Particle size distribution D10 [1]: 152 μm and 202 μm and 154 μm
Particle size distribution D50 [1]: 255 μm and 357 μm and 284 μm
Particle size distribution D90 [1]: 403 μm and 577 μm and 485 μm

C[C@H]1CN(C2CCN(c3nc(N)n[nH]3)CC2)[C@@H](Cc2ccc(Cl)cc2)CO1 [1, hydrated form I, 5-(4-((2S,5S)-5-(4-chlorobenzyl)-2-methylmorpholino)piperidin-1-yl)-1H-1,2,4-triazol-3-amine]
Stability of crystalline form [2]: unstable

C[C@H]1CN[C@@H](Cc2ccc(Cl)cc2)CO1 [compound 2, (2S,5S)-5-(4-chlorobenzyl)-2-methylmorpholine]
Stability of free base ([3]; free base (oil), must be kept as a salt to prevent decomposition): limited stability

CS/C(=N\C#N)N1CCC(N2C[C@H](C)OC[C@@H]2Cc2ccc(Cl)cc2)CC1 [compound 6, methyl (Z)-4-((2S,5S)-5-(4-chlorobenzyl)-2-methylmorpholino)-N-cyanopiperidine-1-carbimidothioate]
Stability in methanol ([3]; in methanol): not stable
